Where two headings read alike, the source gives them in different places.
Assays:
(h)SERT = target: T1, (h)SERT (Homo sapiens, UniProt P31645); assay: block of [3H]serotonin reuptake in HEK-(h)SERT cells; assay type: cell-based
T1 construct: expressed in transfected cells; host or cells: HEK293

(h)DAT [1] = target: T2, (h)DAT (Homo sapiens, UniProt Q01959); assay: competition binding with [125I]RTI-55 at (h)DAT stably expressed in HEK293 cells; conditions: for Ki: mean ± standard error of three independent experiments
T2 construct: expressed in transfected cells
T2 sequence (Q01959 whole entry): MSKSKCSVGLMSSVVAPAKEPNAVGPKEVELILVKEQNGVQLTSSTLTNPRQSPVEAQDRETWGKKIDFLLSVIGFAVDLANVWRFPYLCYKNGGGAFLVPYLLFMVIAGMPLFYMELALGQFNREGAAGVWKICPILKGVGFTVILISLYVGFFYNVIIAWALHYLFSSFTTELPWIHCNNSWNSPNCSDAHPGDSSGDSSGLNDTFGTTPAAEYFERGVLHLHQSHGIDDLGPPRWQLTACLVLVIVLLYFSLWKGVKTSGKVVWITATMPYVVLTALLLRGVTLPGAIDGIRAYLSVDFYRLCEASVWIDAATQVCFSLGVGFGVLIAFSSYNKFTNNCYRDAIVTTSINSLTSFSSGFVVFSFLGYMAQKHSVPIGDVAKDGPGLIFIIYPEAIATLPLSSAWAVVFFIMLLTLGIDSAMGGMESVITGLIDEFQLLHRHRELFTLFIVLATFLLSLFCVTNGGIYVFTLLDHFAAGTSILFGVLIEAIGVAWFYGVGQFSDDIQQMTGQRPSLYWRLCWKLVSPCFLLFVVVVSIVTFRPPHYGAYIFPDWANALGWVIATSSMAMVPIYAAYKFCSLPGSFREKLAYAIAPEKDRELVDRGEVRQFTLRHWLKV

(h)NET [2] = target: T3, (h)NET (Homo sapiens, UniProt P23975); assay: competition binding with [125I]RTI-55 at (h)NET stably expressed in HEK293 cells; conditions: for Ki: read-out: Binding, Ki NET, mean ± standard error of three independent experiments
T3 sequence (P23975 whole entry): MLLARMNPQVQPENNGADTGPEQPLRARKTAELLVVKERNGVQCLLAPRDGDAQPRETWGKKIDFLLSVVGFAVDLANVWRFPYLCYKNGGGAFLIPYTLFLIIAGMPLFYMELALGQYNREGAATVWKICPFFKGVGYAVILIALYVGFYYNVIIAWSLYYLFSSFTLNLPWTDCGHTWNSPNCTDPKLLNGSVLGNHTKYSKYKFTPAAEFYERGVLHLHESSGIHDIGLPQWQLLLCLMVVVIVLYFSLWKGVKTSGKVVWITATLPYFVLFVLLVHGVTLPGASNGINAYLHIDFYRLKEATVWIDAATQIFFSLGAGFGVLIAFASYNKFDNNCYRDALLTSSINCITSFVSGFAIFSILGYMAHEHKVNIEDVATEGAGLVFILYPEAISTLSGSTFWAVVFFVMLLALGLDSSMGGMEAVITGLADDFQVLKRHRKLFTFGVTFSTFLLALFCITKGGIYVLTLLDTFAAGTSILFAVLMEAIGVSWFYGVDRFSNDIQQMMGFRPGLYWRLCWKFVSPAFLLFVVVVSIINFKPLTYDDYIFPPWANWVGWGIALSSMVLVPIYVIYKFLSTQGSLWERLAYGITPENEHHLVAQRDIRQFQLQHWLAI

(h)DAT [3] = target: T2, (h)DAT; assay: block of [3H]dopamine reuptake in HEK-(h)DAT cells; assay type: cell-based; conditions: for times more potent than bupropion as DA uptake inhibitor: relative to bupropion
rats [4] = assay: cocaine discrimination time-course study, oral administration; conditions: for ED50: Rattus norvegicus, po, 0.75 h; for generalization to cocaine: p.o.
mice [5] = assay: locomotor activity, 1-h observation protocol; assay type: in vivo; conditions: for Emax / ED50: Mus musculus; for Emax: 0.5 h, read-out: Locomotor Activity 1-Hour % Peak Cocaine
rats [6] = assay: cocaine discrimination (2-lever operant), i.p. administration; conditions: Rattus norvegicus, ip; for ED50: read-out: Full Generalization ED50
(h)NET [7] = target: T3, (h)NET; assay: block of [3H]norepinephrine reuptake in HEK-(h)NET cells
mice [8] = assay: locomotor activity, 8-h time course protocol; assay type: in vivo; conditions: for locomotor stimulant activity across the 1-h and 8-h protocols, in words: 1-h and 8-h tests compared; for Emax / ED50: Mus musculus; for Emax: read-out: Locomotor Activity 8-Hour % Peak Cocaine, percent of cocaine's maximal effect, 30 min period of maximum stimulation; for ED50: read-out: Locomotor Activity 8-Hour ED50; for Locomotor Activity 8-Hour Time, min Period, length: duration of locomotor activity; for Locomotor Activity 8-Hour Time, min Period, max: time period of maximum effect
[9] = dose to produce 50% of the compound's maximal effect, 1-h
[10] = read-out: % cocaine lever responding
[11] = read-out: Uptake, IC50 [3H]NE, mean ± standard error of three independent experiments
[12] = dose to produce 50% of the compound's maximal effect, 8-h
[13] = [3H]DA, read-out: IC50 for DA uptake inhibition

T1 sequence (P31645 whole entry): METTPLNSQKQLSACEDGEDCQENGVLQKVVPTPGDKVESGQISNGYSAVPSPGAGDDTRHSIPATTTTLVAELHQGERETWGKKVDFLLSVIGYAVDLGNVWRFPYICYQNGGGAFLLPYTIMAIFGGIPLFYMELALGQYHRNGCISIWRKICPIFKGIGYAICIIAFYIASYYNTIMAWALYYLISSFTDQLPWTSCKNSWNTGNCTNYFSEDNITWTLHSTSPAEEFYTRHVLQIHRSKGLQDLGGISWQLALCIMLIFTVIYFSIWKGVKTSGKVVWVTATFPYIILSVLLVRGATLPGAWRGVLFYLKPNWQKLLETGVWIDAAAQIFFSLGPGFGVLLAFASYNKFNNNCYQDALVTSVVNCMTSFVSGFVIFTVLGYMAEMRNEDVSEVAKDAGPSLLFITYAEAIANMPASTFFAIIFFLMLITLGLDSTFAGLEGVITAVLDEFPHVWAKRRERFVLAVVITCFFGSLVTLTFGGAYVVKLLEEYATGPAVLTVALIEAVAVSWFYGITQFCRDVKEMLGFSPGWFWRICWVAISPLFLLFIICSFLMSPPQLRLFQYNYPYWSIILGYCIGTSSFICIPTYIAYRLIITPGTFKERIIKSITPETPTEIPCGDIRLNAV

SMILES	times more potent than bupropion as DA uptake inhibitor ((h)DAT [3])	Ki ((h)DAT [1])	ED50 (rats [4])	Emax (mice [5])	ED50 (mice [5]; [9])	responders at 5 mg/kg (rats [6]; [10])	responders at 10 mg/kg (rats [6]; [10])	responders at 25 mg/kg (rats [6]; [10])	ED50 (rats [6])	IC50 ((h)NET [7]; [11])	locomotor stimulant activity across the 1-h and 8-h protocols, in words (mice [8])	Emax (mice [8])	ED50 (mice [8]; [12])	Locomotor Activity 8-Hour Time, min Period, length (mice [8])	Locomotor Activity 8-Hour Time, min Period, max (mice [8])	Ki ((h)NET [2])	IC50 ((h)DAT [3]; [13])	responders at 50 mg/kg (rats [6]; [10])	5HT uptake inhibition, in words ((h)SERT)	also measured
C[C@@H](NC(C)(C)C)[C@H](O)c1ccccc1 (racemic) [Compound 7, (1RS,2RS)-2-(N-tert-Butylamino)-1-phenyl-1-propanol, reference compound]	–	–	–	–	–	–	–	–	–	–	–	–	–	–	–	–	–	–	–	IC50 ((h)SERT; [3H]5HT, read-out: IC50 for 5HT uptake inhibition): 1.24 µM; affinity at the DAT, in words ((h)DAT [1]): loss of affinity; affinity at the NET, in words ((h)NET [2]): loss of affinity
CCCC(NC(C)(C)C)C(=O)c1cccc(Cl)c1 (stereo not drawn) [Compound 2p, 2-(N-tert-Butylamino)-3′-chloropentanophenone]	29 times	0.096 µM	22.2 mg/kg	96%	17.2 mg/kg	1%	33%	83%	11.9 mg/kg	0.472 µM	activity similar to cocaine in the 1-h protocol but weakened significantly in the 8-h time-course study	72%	16.3 mg/kg	210 to 480 min	90 to 120 min	1.17 µM	–	–	–	IC50 ((h)DAT [3]; mean ± standard error of three independent experiments, read-out: Uptake, IC50 [3H]DA): 0.033 ± 0.007 µM; generalization to cocaine (rats [4]; 45 min, 50 mg/kg): partial generalization; generalization to cocaine (rats [4]; 45 min, 100 mg/kg): full generalization; generalization to cocaine (rats [4]; 90 min, 100 mg/kg): full generalization; generalization to cocaine (rats [4]; 180 min, 100 mg/kg): partial generalization
CCCCC(NC(C)(C)C)C(=O)c1cccc(Cl)c1 (stereo not drawn) [Compound 2q, 2-(N-tert-Butylamino)-3′-chlorohexanophenone]	14 times	0.35 µM	37.9 mg/kg	81%	13.5 mg/kg	1%	67%	10%	8.17 mg/kg	0.4 µM	–	110%	13.1 mg/kg	40 to 460 min	0 to 30 min	3.19 µM	0.069 µM	–	–	–
CCCCCCC(NC(C)(C)C)C(=O)c1cccc(Cl)c1 (stereo not drawn) [Compound 2s, 2-(N-tert-Butylamino)-3′-chlorooctanophenone]	–	0.51 µM	37.9 mg/kg	61%	33.3 mg/kg	0%	0%	49%	–	4.89 µM	weak stimulants in both tests	60%	9 mg/kg	130 to 140 min	110 to 140 min	2.58 µM	0.135 µM	50%	–	responders at 100 mg/kg (rats [6]; [10]): 67%
CCCNC(C)C(=O)c1cccc(Cl)c1 (stereo not drawn) [Compound 2v, 2-(N-Propylamino)-3′-chloropropiophenone]	–	–	–	–	–	–	–	–	–	–	–	–	–	–	–	–	–	–	inactive	DA uptake inhibition, in words ((h)DAT [3]): inactive; Locomotor Activity 1-Hour ED50 (mice [5]; [9]): NE^f; NE uptake inhibition, in words ((h)NET [7]): inactive; Locomotor Activity 8-Hour ED50 (mice [8]; [12]): NE^f
CC(NC1CCCC1)C(=O)c1cccc(Cl)c1 (stereo not drawn) [Compound 2z, 2-(N-Cyclopentylamino)-3′-chloropropiophenone]	–	2.2 µM	8.28 mg/kg	110%	10.6 mg/kg	2%	0%	66%	10.8 mg/kg	–	strong stimulants in both studies	110%	–	330 to 340 min	0 to 30 min	5.7 µM	0.98 µM	83%	totally inactive	IC50 ((h)NET [7]; read-out: IC50 for NE uptake inhibition, [3H]NE): 0.221 µM; ED50 (mice [8]; 8 h): 10.6 mg/kg; onset and duration of locomotor activity, in words (mice [8]; mouse, in vivo): long durations of action

Source: patent US10919841B2, “Monoamine reuptake inhibitors” (Research Triangle Institute, priority 2009, dated 2021)
